The results in this text go back to PMC7482817 (Theranostics, 2020).

A value given as a limit tells only on which side of the number the result lay.

The test system of data set [1] is E. coli B2 (mcr-1). The data set can be described thus: Broth microdilution MIC and checkerboard assay. The data set is classed as cell-based, Escherichia coli. The conditions noted are these: for MIC of antibiotic in the absence of melatonin: antibiotic alone, MHB; for Potentiation (fold): degree of colistin potentiation in the presence of sub-MIC of melatonin and its analogues: colistin plus sub-MIC of the analogue.

The subject of data set [2] is thirteen clinical colistin-resistant E. coli from elk.
Data set [3] concerns E. coli B2. The data set can be described thus: Intracellular SOD activity. The conditions noted are these: colistin with or without melatonin 500 μg/mL, or melatonin alone.
In data set [4] the test system is E. coli B2 (mcr-1). As to the kind of experiment: Mouse peritonitis-sepsis infection model. The class given is in vivo, BALB/c mice. Particulars: single i.p. dose 1 h post-infection: colistin 10 mg/kg, melatonin 50 mg/kg, or combinations 5 + 50, 10 + 20, 10 + 50 mg/kg; 7 days; n = 8 or 9. As for the experimental part:
6-8-week-old female BALB/c mice were obtained from Comparative Medicine Centre of Yangzhou University (Jiangsu, China). Mice were adapted for one week prior to infection. Mouse studies were performed in accordance with the relevant guidelines and regulations (ID: SCXK-2017-0007). The laboratory animal usage license number is SCXK-2017-0044, certified by Jiangsu Association for Science and Technology.
Female BALB/c mice (n = 8 or 9 per group) were intraperitoneally infected with a dose of 3.0 × 10^8 CFUs E. coli B2 suspension. […] Survival rates of mice were recorded for 7 days.

The test system of data set [5] is E. coli B2 (mcr-1). As to the kind of experiment: Time-dependent killing. The conditions noted are these: melatonin 1 mg/mL or colistin 2 μg/mL alone, 24 h. The class given is cell-based, Escherichia coli. As for the experimental part: Overnight E. coli B2 were diluted 1/1,000 in MHB, and incubated for 4 h (exponential phase) or 8 h (stationary phase) at 37 °C. […] At intervals, 100 μL aliquots were removed, centrifuged and resuspended in 100 μL sterile PBS. Subsequently, ten-fold serially diluted suspensions were plated on MHA plates and incubated overnight at 37 °C. Bacterial colonies were counted and the primary CFUs/mL was calculated.

The subject of data set [6] is E. coli B2. As to the kind of experiment: H2O2 production (Hydrogen Peroxide Assay Kit). The class given is cell-based, Escherichia coli. The conditions noted are these: melatonin in single or combination treatment with colistin; 1 h. As for the experimental part:
(§1) 2′,7′-dichlorodihydrofluorescein diacetate (DCFH-DA, 10 μM) was applied to monitor levels of ROS in E. coli B2 [38], following the manufacturer's instruction (Beyotime). Fluorescence intensity was measured with the excitation wavelength of 488 nm and emission wavelength of 525 nm. […] After incubation for one hour, the absorbance of lysis buffer at 570 nm was measured.

Data set [7] relates to resistant bacteria. As to the kind of experiment: Potentiation of colistin, summary over resistant strains. The data set is classed as cell-based. The conditions noted are these: in resistant bacteria.
In data set [8] the test system is E. coli B2. As to the kind of experiment: Total ROS (DCFH-DA). The data set is classed as cell-based, Escherichia coli. Particulars: 1 h, colistin with or without melatonin 500 μg/mL, or melatonin alone. As for the experimental part:
(§2) Pretreatments of biochemical assays were performed using similar protocols as follows. Overnight E. coli B2 were washed, suspended in 5 mM HEPES (pH 7.0, plus 5 mM glucose) with an OD600 of 0.5, and incubated with fluorescent dyes for 30 min. […] After incubation at 37 °C for 1 hour, fluorescence intensity or absorbance or luminescence was measured by an Infinite M200 Microplate reader (Tecan).
as §1

Data set [9] relates to E. coli B2 (mcr-1). The data set can be described thus: Membrane depolarization (DiSC3(5)). The class given is cell-based, Escherichia coli. Particulars: melatonin 0 to 1,000 μg/mL alone, or 500 μg/mL added to colistin; 1 h. As for the experimental part:
as §2
3, 3-dipropylthiadicarbocyanine iodide (DiSC3(5), 0.5 μM) was applied to determine the membrane potential. Dissipated membrane potential of E. coli B2 was measured with the excitation wavelength of 622 nm and emission wavelength of 670 nm.

Data set [10] has as its system CHO cells. As to the kind of experiment: Cytotoxicity, WST-1 assay. Particulars: colistin 0 to 128 μg/mL with melatonin 0 to 1,000 μg/mL, 24 h. The class given is cell-based, Chinese Hamster. (In general: Formazan colour is commonly taken as a measure of viable cells.)
Experimental: (§3) Cytotoxicity on CHO and HEK293T cells was determined using the water-soluble tetrazolium salt-1 (WST-1, Roche, Switzerland) assay [35].
The test system of data set [11] is mcr-1 expression in E. coli B2. The class given is cell-based, Escherichia coli. Particulars: melatonin with or without colistin.
Data set [12] deals with HEK293T cells. As to the kind of experiment: Cytotoxicity, WST-1 assay. The conditions noted are these: colistin 0 to 128 μg/mL with melatonin 0 to 1,000 μg/mL, 24 h. The data set is classed as cell-based, Human.
Experimental: as §3
Data set [13] has as its system E. coli. As to the kind of experiment: Colistin intracellular accumulation by LC-MS/MS. The data set is classed as cell-based, Escherichia coli. Particulars: co-incubation with varying doses of melatonin.
Data set [14] has as its system E. coli G6. The data set can be described thus: Broth microdilution MIC and checkerboard assay. The class given is cell-based, Escherichia coli.
In data set [15] the test system is E. coli G92 (mcr-1). As to the kind of experiment: Broth microdilution MIC and checkerboard assay. The data set is classed as cell-based, Escherichia coli.
Data set [16] deals with E. coli CP131 (mcr-3). The data set can be described thus: Broth microdilution MIC and checkerboard assay. The class given is cell-based, Escherichia coli. (In general: In broth dilution the organism is exposed to a series of concentrations in liquid medium.)
The subject of data set [17] is S. enterica ATCC 13076. As to the kind of experiment: Broth microdilution MIC and checkerboard assay. The class given is cell-based.
Data set [18] relates to E. coli MG1655. As to the kind of experiment: Broth microdilution MIC and checkerboard assay. The data set is classed as cell-based, Escherichia coli.
In data set [19] the test system is E. coli C3. As to the kind of experiment: Broth microdilution MIC and checkerboard assay. The data set is classed as cell-based, Escherichia coli.
For data set [20], the system named is K. pneumoniae D120 (mcr-8). The data set can be described thus: Broth microdilution MIC and checkerboard assay. The data set is classed as cell-based.
The subject of data set [21] is E. coli MG1655 (ΔkatE). As to the kind of experiment: Broth microdilution MIC and checkerboard assay.
The subject of data set [22] is E. coli ATCC 25922. As to the kind of experiment: Broth microdilution MIC and checkerboard assay. The data set is classed as cell-based, Escherichia coli.
The mark [23] stands for this setting: antibiotic plus sub-MIC melatonin.
Where [24] appears, read: antibiotic with melatonin, checkerboard, two biological replicates.
Where [25] appears, read: melatonin or analogue with colistin, checkerboard 8 × 8, 18 h, means of two biological replicates, synergy FIC index ≤ 0.5.

Consider `C[C@@H](O)[C@H]1C(=O)N2C(C(=O)O)=C(S[C@@H]3CN[C@H](C(=O)N(C)C)C3)[C@H](C)[C@H]12` [Meropenem], for which the “MIC of antibiotic in the absence of melatonin” value in data set [1] (18 h, 37 °C) was determined as 32 µg/mL. Besides, the “MIC of antibiotic in the presence of sub-MIC of melatonin” value in [1] (setting [23]) came to 32 µg/mL. In addition, in data set [1] (setting [24]), the FIC index was 2.
For the compound `COc1ccc2[nH]cc(CCNC(C)=O)c2c1` [Melatonin, N-acetyl-5-methoxytryptamine], the “synergistic activity with colistin” value in [2] is “synergistic activity was also evidenced”. For the same compound, the SOD activity result in [3] was “had no direct effect on the total ROS level and SOD activity”. Also, the “survival of mice after lethal infection” value in data set [4] is on record as “did not prevent a lethal infection”. Moreover, the “killing of exponentially growing or stationary E. coli B2 by monotreatment” value in data set [5] is given as “neither melatonin nor colistin monotreatment killed”. Further, the “production of H2O2” value in data set [6] is “significantly promoted production of H2O2 in a dose-dependent manner”. Besides, the potentiation with colistin in data set [7] fell in the range of 8 to 32 fold. Further, in [8], the “total ROS level” value was “had no direct effect on the total ROS level and SOD activity”. The “cytoplasmic membrane potential (DiSC3(5))” value in data set [9] was “caused dissipation of the cytoplasmic membrane potential”. For the same compound, the “effect of melatonin on cytotoxicity of colistin” value in data set [10] and in data set [12] was “slightly reduced the cytotoxicity of colistin” each time. Further, in data set [11], the mcr-1 expression result was “down-regulated in the presence of melatonin”. The intracellular colistin accumulation entry in data set [13] is reported as “enhanced colistin in cells in a dose-dependent manner”.
Turning to `N[C@@H](Cc1c[nH]c2ccc(O)cc12)C(=O)O` [Analogue 3, 5-Hydroxy-L-tryptophan], the “Potentiation (fold): degree of colistin potentiation in the presence of sub-MIC of melatonin and its analogues” value in data set [1] came to 2 fold. Besides, the FIC index in data set [1] (setting [25]) was found to be 1.
As for `CC(=O)NCCc1c[nH]c2ccc(O)cc12` [Analogue 5, N-acetyl-5-hydroxytryptamine], in data set [1], the “Potentiation (fold): degree of colistin potentiation in the presence of sub-MIC of melatonin and its analogues” value stood at 32 fold. The FIC index in data set [1] (setting [25]) is given as 0.094.
Take `NCCc1c[nH]c2ccccc12` [Analogue 2, Tryptamine]: the “Potentiation (fold): degree of colistin potentiation in the presence of sub-MIC of melatonin and its analogues” value in [1] turned out to be 32 fold. Besides, in data set [1] (setting [25]), the FIC index is on record as 0.156.
On the same counts, the results for `COc1ccc2[nH]cc(CCN)c2c1` [Analogue 6, 5-Methoxytryptamine] are 32 fold and 0.156.
Turning to `CC1(C)S[C@@H]2[C@H](NC(=O)[C@H](N)c3ccccc3)C(=O)N2[C@H]1C(=O)O` [Ampicillin], the “MIC of antibiotic in the absence of melatonin” value in data set [1] (18 h, 37 °C) was determined as 128 µg/mL. Further, the “MIC of antibiotic in the presence of sub-MIC of melatonin” value in data set [1] (setting [23]) was 128 µg/mL. For the same compound, the FIC index in data set [1] (setting [24]) is 2.
For the compound `c1ccc2[nH]ccc2c1` [Analogue 7, Indole], the “Potentiation (fold): degree of colistin potentiation in the presence of sub-MIC of melatonin and its analogues” value in [1] was determined as 8 fold.
As for `NCCc1c[nH]c2ccc(O)cc12` [Analogue 1, Serotonin], the “Potentiation (fold): degree of colistin potentiation in the presence of sub-MIC of melatonin and its analogues” value in data set [1] was 8 fold. Further, in data set [1] (setting [25]), the FIC index was 0.188.
With Colistin, the “MIC of colistin in the presence of sub-MIC of melatonin” value in data set [14] (E. coli G6) was determined as 0.0156 µg/mL; in data set [15], 0.5 µg/mL; in [16], 0.5 µg/mL; in data set [17] (S. enterica ATCC 13076), 0.0156 µg/mL; in data set [18] (E. coli MG1655), 0.0156 µg/mL; in [19] (E. coli C3), 0.0312 µg/mL. Moreover, the “MIC of colistin in the presence of sub-MIC of melatonin” value in [20] came out at 0.5 µg/mL; in data set [21], 0.0078 µg/mL; in [22] (E. coli ATCC 25922), 0.125 µg/mL. Further, the “MIC of colistin in the absence of melatonin” value came to 0.125 µg/mL in [14] (E. coli G6, MCR-negative); 4 µg/mL in data set [15] (MCR-positive); 4 µg/mL in data set [16] (MCR-positive); 0.125 µg/mL in data set [17] (S. enterica ATCC 13076, MCR-negative); 0.0625 µg/mL in data set [18] (E. coli MG1655, MCR-negative); 0.125 µg/mL in data set [19] (E. coli C3, MCR-negative). Moreover, the “MIC of colistin in the absence of melatonin” value in data set [20] (MCR-positive) amounted to 4 µg/mL; in [22] (E. coli ATCC 25922, MCR-negative), 0.5 µg/mL. The “survival of mice after lethal infection” value in data set [4] is “did not prevent a lethal infection”. Also, in [5], the “killing of exponentially growing or stationary E. coli B2 by monotreatment” value is listed as “neither melatonin nor colistin monotreatment killed”. In data set [1] (18 h, 37 °C), the “MIC of antibiotic in the absence of melatonin” value came out at 8 µg/mL. Moreover, the “MIC of antibiotic in the presence of sub-MIC of melatonin” value in data set [1] (setting [23]) worked out at 0.25 µg/mL. Moreover, the “MIC^a of colistin in the absence of melatonin and its analogues” value in data set [1] (colistin alone, broth micro-dilution in MHB, 18 h, 37 °C) is given as 8 μg/mL.
`N[C@@H](Cc1c[nH]c2ccccc12)C(=O)O` [Analogue 4, L-tryptophan]: the “Potentiation (fold): degree of colistin potentiation in the presence of sub-MIC of melatonin and its analogues” value in data set [1] was found to be 1 fold. Further, the FIC index in [1] (setting [25]) was 2.
As for `C[C@H]1c2cccc(O)c2C(=O)C2=C(O)[C@]3(O)C(=O)C(C(N)=O)=C(O)[C@@H](N(C)C)[C@@H]3[C@@H](O)[C@@H]21` [Doxycycline], the “MIC of antibiotic in the absence of melatonin” value in data set [1] (18 h, 37 °C) was found to be 32 µg/mL. In addition, in data set [1] (setting [23]), the “MIC of antibiotic in the presence of sub-MIC of melatonin” value came to 4 µg/mL and the “Potentiation (fold): degree of antibiotics potentiation in the presence of sub-MIC of melatonin” value amounted to 8 fold. The FIC index in data set [1] (setting [24]) amounted to 0.250.
For the compound `NCCc1c[nH]cn1` [Analogue 8, Histamine], the FIC index in data set [1] (setting [25]) was over 4.
Take `CO[C@H]1/C=C/O[C@@]2(C)Oc3c(C)c(O)c4c(O)c(c(/C=N/N5CCN(C)CC5)c(O)c4c3C2=O)NC(=O)/C(C)=C\C=C\[C@H](C)[C@H](O)[C@@H](C)[C@@H](O)[C@@H](C)[C@H](OC(C)=O)[C@@H]1C` [Rifampicin]: in [1] (18 h, 37 °C), the “MIC of antibiotic in the absence of melatonin” value was 128 µg/mL. Further, in [1] (setting [23]), the “MIC of antibiotic in the presence of sub-MIC of melatonin” value amounted to 128 µg/mL. In addition, the FIC index in data set [1] (setting [24]) is 2.
